# Measurements as given in US20230391765A1, “HETEROBIFUNCTIONAL COMPOUNDS AS DEGRADERS OF ENL” (ICAHN SCHOOL OF MEDICINE AT MOUNT SINAI, priority 2020, published 2023).
# What was measured:
# [1] = tested on: ENL target genes; assay: RT-qPCR of ENL target genes in MOLM13 cells; type: cell-based; settings: MOLM13 cells, 0.5, 1, 2, 4 and 8 μM for 24 h
# Procedure: MOLM13 cells were treated with LQ076-122 (FIG. 14A) and LQ081-108 (FIG. 14B) at 0.5, 1, 2, 4, and 8 μM for 24 h. […] RT-qPCR analysis was performed to detect the mRNA levels of selected ENL target genes.
# Total RNA was extracted using the RNeasy Plus kit (Qiagen) and reverse-transcribed using the iScript cDNA Synthesis kit (Bio-Rad). RT-qPCR was performed using the Power SYBR Green PCR Master Mix (Applied Biosystems) on the CFX96 Real-Time PCR system (Bio-Rad). Gene expressions were calculated following normalization to 18s rRNA amounts using the comparative cycle threshold (Ct) method.
# [2] = target: T1, ENL (Homo sapiens, UniProt Q03111); assay: Western blot of ENL protein levels in MV4; 11 cells; type: cell-based
# T1 construct: Cells were lysed and expression of endogenous ENL was assessed by Western blot analysis; host or cells: MV4;11
# T1 sequence (Q03111 1-559): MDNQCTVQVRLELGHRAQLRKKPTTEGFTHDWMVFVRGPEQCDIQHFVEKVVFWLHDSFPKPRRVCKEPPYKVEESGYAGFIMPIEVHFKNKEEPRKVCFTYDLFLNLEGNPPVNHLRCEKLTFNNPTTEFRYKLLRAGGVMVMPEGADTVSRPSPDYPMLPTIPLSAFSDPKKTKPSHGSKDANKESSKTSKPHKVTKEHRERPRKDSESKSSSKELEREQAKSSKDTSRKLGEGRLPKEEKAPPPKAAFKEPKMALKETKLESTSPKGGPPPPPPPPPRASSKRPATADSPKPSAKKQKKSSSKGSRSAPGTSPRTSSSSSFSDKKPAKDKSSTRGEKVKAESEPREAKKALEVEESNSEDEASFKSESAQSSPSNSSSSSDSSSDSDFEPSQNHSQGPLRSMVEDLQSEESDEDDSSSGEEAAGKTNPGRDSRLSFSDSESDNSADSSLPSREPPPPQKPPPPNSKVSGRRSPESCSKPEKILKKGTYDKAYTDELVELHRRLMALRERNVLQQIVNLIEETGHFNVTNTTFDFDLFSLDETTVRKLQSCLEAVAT
# How it was run: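 MV4;11 cells treated versus DMSO at 1 and 10 μM for 24 h or 6 h, or at 0.3-30 μM for 24 h; time course at 4 μM over 12-36 h. Proteasome dependence tested with 1 μM degrader ± 1 μM MG132 for 6 h. ENL (and GAS41) levels in total lysates assessed by Western blot with GAPDH/β-actin loading controls.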
smiles,measurement,setting,value
"Cc1ncsc1-c1ccc(CNC(=O)[C@@H]2C[C@@H](O)CN2C(=O)[C@@H](NC(=O)CCCCCCCCCCNC(=O)c2ccc(C(=O)Nc3ccc4[nH]c(CN5CCC[C@@H]5C)nc4c3)cc2)C(C)(C)C)cc1 [LQ076-122, N^1-(11-(((S)-1-((2S,4R)-4-hydroxy-2-((4-(4-methylthiazol-5-yl)benzyl)carbamoyl)pyrrolidin-1-yl)-3,3-dimethyl-1-oxobutan-2-yl)amino)-11-oxoundecyl)-N^4-(2-(((S)-2-methylpyrrolidin-1-yl)methyl)-1H-benzo[d]imidazol-5-yl)terephthalamide]",ENL target gene expression (mRNA levels),[1],reduced ENL target gene expression in a concentration-dependent manner
same,reduction of ENL protein levels,"[2]; 11 cells, 0-8 μM for 24 h",reduced ENL protein levels in a concentration-dependent manner
same,"reduction of ENL protein levels, time course","[2]; 11 cells, 4 μM for 12, 16, 20, 24 and 36 h",reduced ENL protein levels in a time-dependent manner
same,reduction of ENL protein levels,"[2]; 11 cells, 10 μM, 24 h",effective in reducing ENL protein levels
same,reduction of ENL protein level,"[2]; 11 cells, 0.3, 1, 3, 10 and 30 μM for 24 h",selectively reduced the ENL protein level
same,reduction of ENL protein levels,"[2]; 11 cells, 0.3, 1, 3 and 10 μM for 12 and 24 h",reduced ENL protein levels in a concentration- and time-dependent manner
